Assay results reported in ChEMBL document CHEMBL3600300, “Cytotoxic triterpene saponins from Cercodemas anceps” (Bioorg Med Chem Lett, 2015).

Tests used:
Format in all cases: functional, cell-based
SK-MEL-2 = assay: Cytotoxicity against human SK-MEL-2 cells after 48 hrs by SRB assay; settings: SK-MEL-2, 48 h
HepG2 = assay: Cytotoxicity against human HepG2 cells after 48 hrs by SRB assay; settings: HepG2, 48 h
KB = assay: Cytotoxicity against human KB cells after 48 hrs by SRB assay
LNCaP = assay: Cytotoxicity against human LNCAP cells after 48 hrs by SRB assay
MCF7 = assay: Cytotoxicity against human MCF7 cells after 48 hrs by SRB assay; settings: MCF7, 48 h

Row | SMILES | IC50 (SK-MEL-2) | IC50 (HepG2) | IC50 (KB) | IC50 (LNCaP) | IC50 (MCF7)
1 | CO[C@@H]1[C@@H](O)[C@H](O[C@@H]2[C@@H](O)[C@H](O[C@H]3[C@H](O)[C@@H](O[C@@H]4OC[C@@H](O)[C@H](O)[C@H]4O)[C@H](O[C@H]4[C@H](O[C@H]5CC[C@]6(C)C7=CC[C@]89C(=O)O[C@@](C)(CCCC(C)C)[C@H]8C(=O)C[C@@]9(C)[C@@H]7CC[C@H]6C5(C)C)OC[C@@H](OS(=O)(=O)O)[C@@H]4O)O[C@@H]3C)O[C@H](COS(=O)(=O)O)[C@H]2O)O[C@H](CO)[C@H]1O | 110 nM | 70 nM | 30 nM | 170 nM | 130 nM
2 | C=C(C)CCC[C@]1(C)OC(=O)[C@]23CC=C4[C@@H](CC[C@H]5C(C)(C)[C@@H](O[C@@H]6OC[C@@H](OS(=O)(=O)O)[C@H](O)[C@H]6O[C@@H]6O[C@H](C)[C@@H](O[C@@H]7O[C@H](COS(=O)(=O)O)[C@@H](O)[C@H](O[C@@H]8O[C@H](CO)[C@@H](O)[C@H](OC)[C@H]8O)[C@H]7O)[C@H](O)[C@H]6O[C@@H]6OC[C@@H](O)[C@H](O)[C@H]6O)CC[C@]45C)[C@]2(C)CC(=O)[C@@H]31 | 240 nM | 70 nM | 40 nM | 230 nM | 200 nM
3 | CC(C)CCC[C@]1(C)OC(=O)[C@]23CC=C4[C@@H](CC[C@H]5C(C)(C)[C@@H](O[C@@H]6OC[C@@H](OS(=O)(=O)O)[C@H](O)[C@H]6O[C@H]6O[C@H](C)[C@H](O[C@@H]7O[C@H](COS(=O)(=O)O)[C@@H](O)[C@H](O)[C@H]7O)[C@H](O)[C@H]6O)CC[C@]45C)[C@]2(C)CC(=O)[C@@H]31 | 1470 nM | 970 nM | 250 nM | 1190 nM | 560 nM
4 | C=C(C)CCC[C@]1(C)OC(=O)[C@]23CC=C4[C@@H](CC[C@H]5C(C)(C)[C@@H](O[C@@H]6OC[C@@H](OS(=O)(=O)O)[C@H](O)[C@H]6O[C@H]6O[C@H](C)[C@H](O[C@@H]7O[C@H](COS(=O)(=O)O)[C@@H](O)[C@H](O)[C@H]7O)[C@H](O)[C@H]6O)CC[C@]45C)[C@]2(C)CC(=O)[C@@H]31 | 1250 nM | 4690 nM | 320 nM | 1920 nM | 1030 nM
5 | CC(C)CCC[C@]1(C)OC(=O)[C@]23CC=C4[C@@H](CC[C@H]5C(C)(C)[C@@H](O[C@@H]6OC[C@@H](OS(=O)(=O)O)[C@H](O)[C@H]6O[C@H]6O[C@H](C)[C@@H](O)[C@H](O)[C@H]6O)CC[C@]45C)[C@]2(C)CC(=O)[C@@H]31 | 4090 nM | 2050 nM | 480 nM | 2110 nM | 1090 nM
6 | C=C(C)CCC[C@]1(C)OC(=O)[C@]23CC=C4[C@@H](CC[C@H]5C(C)(C)[C@@H](O[C@@H]6OC[C@@H](OS(=O)(=O)O)[C@H](O)[C@H]6O[C@H]6O[C@H](C)[C@@H](O)[C@H](O)[C@H]6O)CC[C@]45C)[C@]2(C)CC(=O)[C@@H]31 | 7360 nM | 6080 nM | 1370 nM | 3300 nM | 1330 nM
7 | CO[C@@H]1[C@@H](O)[C@H](O[C@@H]2[C@@H](O)[C@H](O[C@H]3[C@H](O)[C@@H](O)[C@H](O[C@H]4[C@H](O[C@H]5CC[C@]6(C)[C@H]7CC[C@]89C(=O)O[C@@](C)(CCC=C(C)C)[C@H]8[C@@H](OC(C)=O)C[C@@]9(C)C7=CC[C@H]6C5(C)C)OC[C@@H](OS(=O)(=O)O)[C@@H]4O)O[C@@H]3C)OC[C@H]2O)O[C@H](CO)[C@H]1O | 850 nM | 1160 nM | 110 nM | 1190 nM | 370 nM
8 | Cc1c2ccncc2c(C)c2c1[nH]c1ccccc12 [ELLIPTECINE] | 2150 nM | 1710 nM | 2070 nM | 1990 nM | 1950 nM
